Experimental data taken from paper PMC3369921, “Ecto-5′-Nucleotidase: A Candidate Virulence Factor in Streptococcus sanguinis Experimental Endocarditis” (PLoS ONE, 2012).

Target: T1, ecto-5′-nucleotidase (Nt5e) (Streptococcus sanguinis, UniProt I3RY26)
T1 construct: native enzyme on whole cells of S. sanguinis strain 133-79
Assay: whole-cell AMPase activity (phosphate release) dose-inhibition and Michaelis-Menten analysis
Assay type: cell-based

T1 sequence (I3RY26 entry or part of it): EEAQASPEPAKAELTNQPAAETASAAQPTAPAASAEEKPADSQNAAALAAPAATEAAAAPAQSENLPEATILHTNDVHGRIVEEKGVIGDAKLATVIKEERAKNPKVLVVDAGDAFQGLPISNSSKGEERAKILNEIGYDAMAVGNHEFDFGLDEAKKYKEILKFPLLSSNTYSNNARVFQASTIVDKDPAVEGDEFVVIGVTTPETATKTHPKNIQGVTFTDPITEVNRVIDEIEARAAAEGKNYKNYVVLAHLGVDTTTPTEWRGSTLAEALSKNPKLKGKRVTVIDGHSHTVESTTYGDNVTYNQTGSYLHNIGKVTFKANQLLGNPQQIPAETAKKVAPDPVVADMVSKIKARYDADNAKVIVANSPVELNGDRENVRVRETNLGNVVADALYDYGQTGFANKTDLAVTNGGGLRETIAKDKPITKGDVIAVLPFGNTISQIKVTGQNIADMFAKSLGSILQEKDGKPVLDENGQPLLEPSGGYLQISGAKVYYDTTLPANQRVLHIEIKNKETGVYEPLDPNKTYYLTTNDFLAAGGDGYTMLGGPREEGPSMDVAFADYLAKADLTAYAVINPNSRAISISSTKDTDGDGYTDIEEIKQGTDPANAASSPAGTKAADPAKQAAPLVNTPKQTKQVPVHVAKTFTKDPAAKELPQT

Q: Which IC50 does the source give for `Nc1ncnc2c1ncn2[C@@H]1O[C@H](COP(=O)(O)CP(=O)(O)O)[C@@H](O)[C@H]1O` [APCP] here?
A: 8.8 ± 3.8 µM
